Results reported in ChEMBL document CHEMBL1208779, “Integrated ligand and structure based studies of flavonoids as fatty acid biosynthesis inhibitors of Plasmodium falciparum” (Bioorg Med Chem Lett, 2010).
Calls of active or inactive are those of the source. The calls are words filed in the database; no cut-off is given here.

Target: T1, Enoyl-acyl-carrier protein reductase (Plasmodium falciparum) (UniProt Q965D5)
T1 sequence (whole entry): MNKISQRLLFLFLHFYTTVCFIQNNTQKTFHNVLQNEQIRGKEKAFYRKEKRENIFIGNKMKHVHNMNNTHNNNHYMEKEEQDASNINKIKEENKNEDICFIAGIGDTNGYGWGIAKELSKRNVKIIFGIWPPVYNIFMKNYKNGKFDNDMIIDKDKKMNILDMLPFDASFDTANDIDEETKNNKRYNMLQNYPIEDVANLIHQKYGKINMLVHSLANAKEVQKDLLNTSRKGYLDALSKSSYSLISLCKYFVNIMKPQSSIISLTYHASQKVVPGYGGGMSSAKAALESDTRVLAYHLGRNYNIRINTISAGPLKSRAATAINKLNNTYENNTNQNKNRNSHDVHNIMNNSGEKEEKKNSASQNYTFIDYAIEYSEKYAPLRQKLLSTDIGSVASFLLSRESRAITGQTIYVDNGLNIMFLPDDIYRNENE
Assay: Inhibition of Plasmodium falciparum FabI at 100 uM

COc1ccc(-c2cc(=O)c3c(O)c(O)c(OC)cc3o2)cc1
inhibition: inactive

O=c1cc(-c2ccccc2)oc2ccc(O)cc12
inhibition: inactive

COc1cc2c(c(O)c1OC)C(=O)C[C@@H](c1ccc(O)cc1)O2
inhibition: inactive
